For the experiment, the system named is ergosterol pathway. The experiment can be described thus: DNA microarray transcript profiling of clotrimazole-treated yeast.

For `Clc1ccccc1C(c1ccccc1)(c1ccccc1)n1ccnc1` [Clotrimazole, clotrimazole], under “clotrimazole titration”, the “YPL272C expression in response to drug treatment (titration plot, FIG. 13)” value is “induced to a high level”. Moreover, the “number of genes upregulated by treatment” value (wild-type strain R174, YPD, 30° C., 12 hours, 0.03, 0.1, 1.0, and 3.0 ug/ml) is on record as around 500.
